For series [1], the system named is gastric mucosa. Put plainly: Ulcerogenic liability (ulcer index). It is filed as in vivo, albino mice. To be noted: orally, three successive days, 10 mg/kg indomethacin mol equivalent; for Number of animals with ulcer: 6 animals per group; for Ulcer index: sum of the three values. In short, it runs like this: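 Albino mice were fasted 18 h before dosing, and controls got saline with a few drops of Tween 80. Gastric mucosa was checked under a 10× lens for lesions and erosions. The ulcer index combines percentage incidence divided by 10, mean ulcers per stomach and mean severity.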

The subject of series [2] is A-549 (lung) carcinoma cell line. Nature of the series: Anti-tumor properties, MTT. It is filed as cell-based. To be noted: Homo sapiens, A549.
For series [3], the system named is Staphylococcus aureus ATCC25923. Put plainly: Antimicrobial MIC, agar dilution. Background: In agar dilution, organisms are placed on agar that contains the substance at set levels.
Series [4] has as its system PC3 (prostate) carcinoma cell line. Nature of the series: Anti-tumor properties, MTT. The format is cell-based. To be noted: Homo sapiens.
Series [5] deals with Candida albicans (local isolate). Nature of the series: Antimicrobial MIC, agar dilution. To be noted: Candida albicans, read-out: Minimum inhibitory concentration (MIC).
Series [6] deals with HCT116 (colon) carcinoma cell line. Nature of the series: Anti-tumor properties, MTT. It is filed as cell-based. The note with it: Homo sapiens, HCT-116; read-out: IC50 (μM) HCT116 (colon). In short, it runs like this: (§1)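 Cells seeded at 10×10^3 per well for 24 h, then exposed to compound in serum-free medium (final up to 100 μM, 0.5% DMSO vehicle) for 72 h in triplicate. Viability by MTT reduction (4 h, SDS solubilised), absorbance 595 nm/ref 620 nm; IC50 from survival curves.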

The subject of series [7] is HepG2 (hepatocellular) carcinoma cell line. Nature of the series: Anti-tumor properties, MTT. It is filed as cell-based. To be noted: Homo sapiens, HepG2; read-out: IC50 (μM) HepG2 (liver). In short, it runs like this: as §1
Series [8] deals with MCF7 (breast) carcinoma cell line. Nature of the series: Anti-tumor properties, MTT. It is filed as cell-based. To be noted: Homo sapiens, MCF7; read-out: IC50 (μM) MCF7 (breast). In short, it runs like this: as §1
In series [9] the test system is PHA-stimulated splenocytes. Put plainly: Proliferative response of PHA-stimulated splenocytes (MTT assay). The format is cell-based. The note with it: PHA 5 μg/ml, 72 hr; compounds at 5 μM (method says 10 μM); ratio of O.D. versus vehicle control. In short, it runs like this:
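Freshly prepared splenocytes (1×10^6 cells/well) were cultured for 72 h at 37° C with compound at 10 μM final, with or without PHA (5 μg/ml). Viability was read by MTT (4 h), with absorbance at 570 nm against 690 nm reference. Stimulation index is the OD ratio of treated versus vehicle cultures.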

Series [10] deals with Salmonella typhi ATCC19430. Put plainly: Antimicrobial MIC, agar dilution. It is filed as cell-based. To be noted: Salmonella enterica, read-out: Minimum inhibitory concentration (MIC).
Series [11] has as its system Streptococcus pyogenes ATCC19615. Nature of the series: Antimicrobial MIC, agar dilution.
For series [12], the system named is Pseudomonas aeruginosa ATCC27853. Put plainly: Antimicrobial MIC, agar dilution.
Series [13] deals with lipopolysaccharide-stimulated peritoneal macrophages. Nature of the series: Production of nitric oxide by lipopolysaccharide-stimulated peritoneal macrophages (Greiss reagent). The format is cell-based. The arrangement: Potency (%): % inhibition of nitric oxide production relative to lipopolysaccharide-stimulated macrophages: concentration or dose not given beside the values. To be noted: LPS-stimulated peritoneal macrophages; for Nitric oxide (nitrite) concentration, μM (average ± SD): 24 h, nitrite by Greiss reagent. In short, it runs like this: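 Macrophages in nitrite-free medium with 0.1% BSA were stimulated with LPS at 0.5–10 ng/ml, some wells also receiving epinephrine, norepinephrine or dopamine at […], for 24 h at 37° C. Nitrite in supernatants was measured with Greiss reagent, 15 min at room temperature, absorbance 532 nm.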

Where [14] appears, read: ATCC25923, 18 h, read-out: Minimum inhibitory concentration (MIC).
The mark [15] stands for this setting: ATCC25923, read-out: Minimum inhibitory concentration (MIC).
The mark [16] stands for this setting: ATCC19615, 18 h, read-out: Minimum inhibitory concentration (MIC).
Setting [17] is: ATCC19615, read-out: Minimum inhibitory concentration (MIC).
Where [18] appears, read: ATCC27853, 18 h, read-out: Minimum inhibitory concentration (MIC).
Setting [19] is: ATCC27853, read-out: Minimum inhibitory concentration (MIC).

Structures are written as SMILES. Where two headings read alike, the source gives them in different places.

On to `COc1cc(/C=C/C(=O)CC(=O)/C=C/c2ccc(OC(=O)CCN)c(OC)c2)ccc1OC(=O)CCN.Cl.Cl` [HCl-β-Ala-Cur, 3,3′-((((1E,6E)-3,5-dioxohepta-1,6-diene-1,7-diyl)bis(2-methoxy-4,1-phenylene))bis(oxy))bis(3-oxopropan-1-aminium) chloride], for which, in series [1], the “% Incidence of ulcer divided by 10” value amounted to 0. For the same compound, the “Average of ulcer number” value in series [1] is reported as 0. The “Average severity of ulcer” value in series [1] is given as 0. The “Number of animals with ulcer” value in [1] is on record as 0/6. In addition, the Ulcer index in series [1] amounted to 0. Besides, the IC50 (usually the concentration that inhibits the measured activity by half) in [2] worked out at 32.4 µM; in [4] it was 30.2 µM; in [6], 42.3 µM; in [7] it was 36.4 µM; in [8] it was 9.36 µM. In addition, the MIC in series [3] (setting [14]) was found to be 1 µg/mL; in series [3] (setting [15]), 1.71 µM; in series [5] (18 h), 0.5 µg/mL; in [5], 0.857 µM; in series [10] (18 h) it was 1 µg/mL; in series [10], 1.71 µM. Further, the MIC in [11] (setting [16]) amounted to 1 µg/mL; in series [11] (setting [17]), 1.71 µM; in series [12] (setting [18]), 1 µg/mL; in [12] (setting [19]) it was 1.71 µM. Also, in series [9], the “Stimulation Index (average ± SD)” value was found to be 1.39 ± 0.98. The “Potency (%): % inhibition of nitric oxide production relative to lipopolysaccharide-stimulated macrophages” value in series [13] stood at 41.68%. For the same compound, the “Nitric oxide (nitrite) concentration, μM (average ± SD)” value (“Nitric oxide … (average ± SD)” below) in series [13] stood at 15.93 ± 0.29 µM.
For `COc1cc(/C=C/C(=O)CC(=O)/C=C/c2ccc(OC(=O)CN)c(OC)c2)ccc1OC(=O)CN.Cl.Cl` [HCl-Gly-Cur, 2,2′-((((1E,6E)-3,5-dioxohepta-1,6-diene-1,7-diyl)bis(2-methoxy-4,1-phenylene))bis(oxy))bis(2-oxoethan-1-aminium) chloride], the “% Incidence of ulcer divided by 10” value in [1] is 0. Further, the “Average of ulcer number” value in series [1] is recorded as 0. The “Average severity of ulcer” value in series [1] was 0. Also, in series [1], the “Number of animals with ulcer” value was 0/6. In series [1], the Ulcer index worked out at 0. The IC50 in [2] was determined as 18.9 µM; in series [4], 38.7 µM; in series [6], 36.2 µM; in series [7] it was 39.8 µM; in series [8], 9.15 µM. Also, the MIC in series [3] (setting [14]) came out at 0.5 µg/mL; in [3] (setting [15]) it was 0.9 µM; in [5] (18 h) it was 1 µg/mL; in series [5] it was 1.8 µM; in series [10] (18 h), 0.25 µg/mL; in series [10], 0.45 µM. The MIC amounted to 0.25 µg/mL in [11] (setting [16]), 0.45 µM in [11] (setting [17]), 1 µg/mL in series [12] (setting [18]) and 1.8 µM in [12] (setting [19]). Further, in series [9], the “Stimulation Index (average ± SD)” value is reported as 0.99 ± 0.16. The “Potency (%): % inhibition of nitric oxide production relative to lipopolysaccharide-stimulated macrophages” value in series [13] is recorded as 49.98%. Moreover, the “Nitric oxide … (average ± SD)” value in [13] was 13.66 ± 1.05 µM.
With `COc1cc(/C=C/C(=O)CC(=O)/C=C/c2ccc(OC(=O)[C@H](CCSC)NC(=O)OC(C)(C)C)c(OC)c2)ccc1OC(=O)[C@H](CCSC)NC(=O)OC(C)(C)C` [Boc-L-Met-Cur, ((1E,6E)-3,5-dioxohepta-1,6-diene-1,7-diyl)bis(2-methoxy-4,1-phenylene) (2S,2′S)-bis(2-((tert-butoxycarbonyl)amino)-4-(methylthio)butanoate)], the “% Incidence of ulcer divided by 10” value in [1] came to 0. The “Average of ulcer number” value in [1] was found to be 0. For the same compound, the “Average severity of ulcer” value in series [1] was found to be 0. Besides, in series [1], the “Number of animals with ulcer” value is recorded as 0/6. Further, the Ulcer index in series [1] came out at 0. For the same compound, the IC50 in [2] was greater than 100 µM; in [4], greater than 100 µM; in [6], greater than 100 µM; in series [7], greater than 100 µM; in [8] it was 36.3 µM. Besides, the MIC was 2 µg/mL in [3] (setting [14]); 2.41 µM in [3] (setting [15]); 1 µg/mL in series [5] (18 h); 1.2 µM in series [5]; 2 µg/mL in series [10] (18 h); 2.41 µM in series [10]. Also, the MIC came out at 2 µg/mL in [11] (setting [16]), 2.41 µM in series [11] (setting [17]), 1 µg/mL in [12] (setting [18]) and 1.2 µM in series [12] (setting [19]). In series [9], the “Stimulation Index (average ± SD)” value worked out at 1.37 ± 0.10. In [13], the “Potency (%): % inhibition of nitric oxide production relative to lipopolysaccharide-stimulated macrophages” value is 40.84%. The “Nitric oxide … (average ± SD)” value in series [13] worked out at 16.16 ± 0.64 µM.
Turning to `COc1cc(/C=C/C(=O)CC(=O)/C=C/c2ccc(OC(=O)[C@@H](N)CCSC)c(OC)c2)ccc1OC(=O)[C@@H](N)CCSC.Cl.Cl` [HCl-L-Met-Cur, (2S,2′S)-1,1′-((((1E,6E)-3,5-dioxohepta-1,6-diene-1,7-diyl)bis(2-methoxy-4,1-phenylene))bis(oxy))bis(4-(methylthio)-1-oxobutan-2-aminium) chloride], the “% Incidence of ulcer divided by 10” value in [1] stood at 0. For the same compound, the “Average of ulcer number” value in series [1] came out at 0. In series [1], the “Average severity of ulcer” value was 0. Further, in [1], the “Number of animals with ulcer” value is 0/6. Besides, the Ulcer index in [1] is recorded as 0. Further, the concentration for half-maximal inhibition (IC50) in [2] is 32.8 µM; in [4], 42.6 µM; in series [6] it was 61.9 µM; in series [7], 39.8 µM; in [8] it was 11.3 µM. Besides, the MIC worked out at 0.25 µg/mL in series [3] (setting [14]); 0.355 µM in series [3] (setting [15]); 0.5 µg/mL in [5] (18 h); 0.711 µM in series [5]; 0.125 µg/mL in series [10] (18 h); 0.178 µM in [10]. Further, the MIC in [11] (setting [16]) was 0.5 µg/mL; in series [11] (setting [17]), 0.711 µM; in series [12] (setting [18]), 0.5 µg/mL; in series [12] (setting [19]), 0.711 µM. The “Stimulation Index (average ± SD)” value in series [9] came to 1.49 ± 0.06. Moreover, the “Potency (%): % inhibition of nitric oxide production relative to lipopolysaccharide-stimulated macrophages” value in series [13] is 37.94%. The “Nitric oxide … (average ± SD)” value in series [13] came out at 16.95 ± 0.40 µM.
As to `COc1cc(/C=C/C(=O)CC(=O)/C=C/c2ccc(OC(=O)[C@@H](C)NC(=O)OCc3ccccc3)c(OC)c2)ccc1OC(=O)[C@@H](C)NC(=O)OCc1ccccc1` [Z-D-Ala-Cur, ((1E,6E)-3,5-dioxohepta-1,6-diene-1,7-diyl)bis(2-methoxy-4,1-phenylene) (2R,2′R)-bis(2-(((benzyloxy)carbonyl)amino)propanoate)], the “% Incidence of ulcer divided by 10” value in series [1] was found to be 0. The “Average of ulcer number” value in series [1] came to 0. The “Average severity of ulcer” value in series [1] is 0. Moreover, in [1], the “Number of animals with ulcer” value was 0/6. Moreover, the Ulcer index in [1] was found to be 0. For the same compound, the IC50 in [2] was greater than 100 µM; in series [4] it was greater than 100 µM; in series [6], greater than 100 µM; in [7], greater than 100 µM; in [8], 73 µM. For the same compound, the MIC worked out at 0.5 µg/mL in series [3] (setting [14]); 0.642 µM in series [3] (setting [15]); 0.5 µg/mL in series [5] (18 h); 0.642 µM in [5]; 0.5 µg/mL in series [10] (18 h); 0.642 µM in [10]. Moreover, the MIC in series [11] (setting [16]) came to 0.125 µg/mL; in [11] (setting [17]) it was 0.161 µM; in series [12] (setting [18]) it was 1 µg/mL; in series [12] (setting [19]), 1.28 µM. For the same compound, in [9], the “Stimulation Index (average ± SD)” value amounted to 1.59 ± 0.14. In addition, the “Potency (%): % inhibition of nitric oxide production relative to lipopolysaccharide-stimulated macrophages” value in [13] worked out at 35.45%. Moreover, the “Nitric oxide … (average ± SD)” value in series [13] was 17.63 ± 0.92 µM.

The values above are taken from patent US10660967B2, “Curcumin conjugates and methods of use thereof” (priority 2016, dated 2020).
